Experimental data reported in patent publication US9072293B2, “Cyclopropenes and method for applying cyclopropenes to agricultural products or crops” (Erum Biotechnologies Inc., priority 2010, dated 2015).
Where “and” joins values, the source holds several entries; their conditions need not be identical. Equal values may be shown once.

Assays:
[1] = Relative chemical stability of cyclopropenes measured by 1H-NMR; type: physicochemical; conditions: for Stability (relative chemical stability, based on cyclopropenes having a chain length of 1): 1H-NMR, CDCl3, stored at −20° C. or room temperature, relative to chain length 1
Source text: A variety of analysis methods can be used to analyze the derivatives of Formula 6, since the absorbance of cyclopropenes containing an aryl group can be easily measured in the UV range. It can be confirmed that the chemical stability of the derivatives increases, when the length of chains to link an aryl ring to a cyclopropene ring is 2 or more. […] It is supposed that the stability of cyclopropenes increase due to the fact that π electrons of aryl groups affect π electrons of cyclopropenes.
The following Table 1 summarizes the relative chemical stability of cyclopropenes having a chain length of 2, 3, 4 or 5, based on the chemical stability of cyclopropenes having a chain length of 1. In the case of cyclopropene having a chain length of 1, the structure thereof can be confirmed via ^1H-NMR within one hour following synthesis (degraded to a level of 50% or more within one hour at 30° C.). In the case of cyclopropene having a chain length of zero, synthesis thereof was attempted in accordance with the present invention, but was impossible by a conventional method. Meanwhile, in the case of cyclopropenes having a chain length of 2 or more, the structure thereof can be precisely confirmed by ^1H-NMR as well as ^13C-NMR. The stability of these cyclopropenes was measured by ^1H-NMR while NMR cells (CDCl3) were stored at −20° C. or room temperature. In particular, cyclopropenes having chains of 3 or more were so stable that their half-life reached 5 days or longer at −20° C. or lower. In ^1H-NMR analysis, the stability was evaluated by comparing integral values at 4 to 6.5 ppm (1H) and 0.8 to 0.9 ppm (2H), characteristic peaks of 1-alkylcyclopropenes, using a small amount of 1,1,3,3-tetramethylurea (2.80 ppm) as an internal standard. Furthermore, the stability was also qualitatively evaluated by comparing integral value of the peak newly generated adjacent to the peak of the olefin proton of cyclopropene ring, as a 1-alkylcyclopropene compound is decomposed.

[2] = tested on: tomato; assay: Experimental Example 1: Efficacy test on tomato using emulsion (reddening grade); type: in vivo; parameters: key: an area in which the surface of tomato was colored in pink was 10% or less; an area in which the surface of tomato was completely colored in red was 10 to 40%; 2: an area in which the surface of tomato was completely colored in red was 40 to 70%; 3: an area in which the surface of tomato was completely colored in red was 70% or more and the bottom area remained green; 4: an area in which the surface of tomato was most colored in red and only a part of (0 to 10%) the bottom area remained green; 5: the surface of tomato did not entirely color in green; conditions: individual tomatoes n=4
Procedure: In situ, a 1.0 mM 1-octylcyclopropene formulation was prepared using (trans)-1-octyl-1-(methanesulfonyloxy)-2-(trimethylsilyl)cyclopropane of Preparation Example 10 in the same manner as in Example 7. This solution was diluted to 1 to 100 times prior to use, as necessary. Experimental Example 1: Efficacy test on tomato using emulsion 1.0 mM formulations of five agents such as 1-(2-phenylethyl)cyclopropene, 1-(3-phenylpropyl)cyclopropene, 1-(4-phenylbutyl)cyclopropene, 1-(5-phenylpentyl)cyclopropene and 1-hexylcyclopropene were prepared in the same manner as in Example 1, and 1.0 mM and 100 μM solutions were prepared therefrom. Then, the effects of the solutions were compared with non-treated groups and control groups in which a surfactant or a stabilizing agent (sodium dodecylbenzenesulfonate or tristyrenylphenykethoxy)12ethanol) is dissolved.
Tomatoes whose top end began to turn pink were screened, harvested and divided into 12 groups (n=4) in total, i.e., non-treated groups, control groups (surfactant) and agent groups with different concentrations such as 100 μM and 1.0 mM. Tomatoes were treated with the prepared agent formulation using a household sprayer such that the surface thereof was saturated. The tomatoes were stood at room temperature (25-30° C.) for 3 days and a reddening level thereof was evaluated based on grades of 0 to 5.
(§1) At this time, the tops of tomatoes most early turned red, while the bottoms thereof most lately turned red. For this reason, in order to accurately evaluate the difference in reddening, the coloring evaluated was based on the area of red color, rather than the color of tomatoes. […] Accordingly, the grade level is proportional to the rate at which the tomatoes ripened.

[3] = tested on: tomato; assay: Experimental Example 2: Efficacy test on tomato using oil based formulation (reddening grade); type: in vivo; parameters: key: an area in which the surface of tomato was colored in pink was 10% or less; an area in which the surface of tomato was completely colored in red was 10 to 40%; 2: an area in which the surface of tomato was completely colored in red was 40 to 70%; 3: an area in which the surface of tomato was completely colored in red was 70% or more and the bottom area remained green; 4: an area in which the surface of tomato was most colored in red and only a part of (0 to 10%) the bottom area remained green; 5: the surface of tomato did not entirely color in green; conditions: 1.0 mM oil-based formulation, individual tomatoes n=4
Source text: as §1
As illustrated in Example 1, in situ, in accordance with the methods of Preparation Examples 15, 16, 17, 18 and 22, five agents (1.0 mmol) such as 1-(2-phenylethyl)cyclopropene, 1-(3-phenylpropyl)cyclopropene, 1-(4-phenylbutyl)cyclopropene, 1-(5-phenylpentyl)cyclopropene and 1-hexylcyclopropene were prepared, 5.0 ml of xylene and 5.0 ml of water were added to the reaction solution, vigorously stirred for 5 minutes and stood. When the mixture was separated into an organic layer (upper layer) and an aqueous layer (lower layer), only the organic layer was collected and the aqueous layer was discarded. […] of hexane was added to the organic layer and homogeneously mixed to prepare a 1.0 mM oil-based formulation.
The tomatoes were screened in the same manner as in Experimental Example 1 and divided into 7 groups (n=4) including a non-treated group, a control group (solvent-treated group) and 5 agent groups. Tomatoes were treated with the previously prepared agent using a household sprayer such that the surface thereof was saturated. The tomatoes were stood at room temperature (25-30° C.) for 3 days and a reddening level thereof was evaluated based on grades of 0 to 5.

Compound | chemical stability (in words) [1] | Stability (relative chemical stability, based on cyclopropenes having a chain length of 1) [1] | reddening level (grade 0 to 5) ([2]; 100 μM, Day 0, room temperature (25-30° C.)) | reddening level (grade 0 to 5) ([2]; 100 μM, Day 1, room temperature (25-30° C.)) | reddening level (grade 0 to 5) ([2]; 100 μM, Day 2, room temperature (25-30° C.)) | reddening level (grade 0 to 5) ([2]; 100 μM, Day 3, room temperature (25-30° C.)) | reddening level (grade 0 to 5) ([2]; 1.0 mM, Day 0, room temperature (25-30° C.)) | reddening level (grade 0 to 5) ([2]; 1.0 mM, Day 1, room temperature (25-30° C.)) | reddening level (grade 0 to 5) ([2]; 1.0 mM, Day 2, room temperature (25-30° C.)) | reddening level (grade 0 to 5) ([2]; 1.0 mM, Day 3, room temperature (25-30° C.)) | Tomato results: reddening level (grade 0 to 5) ([3]; Day 0, room temperature (25-30° C.)) | Tomato results: reddening level (grade 0 to 5) ([3]; Day 1, room temperature (25-30° C.)) | Tomato results: reddening level (grade 0 to 5) ([3]; Day 2, room temperature (25-30° C.)) | Tomato results: reddening level (grade 0 to 5) ([3]; Day 3, room temperature (25-30° C.))
C1=C(Cc2ccccc2)C1 [1-benzylcyclopropene] | considerably unstable | 1 | – | – | – | – | – | – | – | – | – | – | – | –
CCCCCCC1=CC1 [(Hexyl), 1-hexylcyclopropene, reference compound] | – | – | 0 (an area in which the surface of tomato was colored in pink was 10% or less) (2×) and 1 (an area in which the surface of tomato was completely colored in red was 10 to 40%) and 2 (an area in which the surface of tomato was completely colored in red was 40 to 70%) | 1 (an area in which the surface of tomato was completely colored in red was 10 to 40%) (2×) and 3 (an area in which the surface of tomato was completely colored in red was 70% or more and the bottom area remained green) and 4 | 3 (an area in which the surface of tomato was completely colored in red was 70% or more and the bottom area remained green) (2×) and 4 and 5 | 4 and 5 (3×) | 0 (an area in which the surface of tomato was colored in pink was 10% or less) (2×) and 1 (an area in which the surface of tomato was completely colored in red was 10 to 40%) and 2 (an area in which the surface of tomato was completely colored in red was 40 to 70%) | 1 (an area in which the surface of tomato was completely colored in red was 10 to 40%) (2×) and 2 (an area in which the surface of tomato was completely colored in red was 40 to 70%) and 3 (an area in which the surface of tomato was completely colored in red was 70% or more and the bottom area remained green) | 2 (an area in which the surface of tomato was completely colored in red was 40 to 70%) (2×) and 3 (an area in which the surface of tomato was completely colored in red was 70% or more and the bottom area remained green) and 4 | 3 (an area in which the surface of tomato was completely colored in red was 70% or more and the bottom area remained green) (2×) and 5 (2×) | 0 (an area in which the surface of tomato was colored in pink was 10% or less) (2×) and 1 (an area in which the surface of tomato was completely colored in red was 10 to 40%) and 2 (an area in which the surface of tomato was completely colored in red was 40 to 70%) | 1 (an area in which the surface of tomato was completely colored in red was 10 to 40%) (2×) and 2 (an area in which the surface of tomato was completely colored in red was 40 to 70%) and 3 (an area in which the surface of tomato was completely colored in red was 70% or more and the bottom area remained green) | 3 (an area in which the surface of tomato was completely colored in red was 70% or more and the bottom area remained green) and 2 (an area in which the surface of tomato was completely colored in red was 40 to 70%) and 4 and 5 | 4 (2×) and 5 (2×)
COc1ccc(CC2=CC2)cc1 [A=—, Z=4-OCH, 1-(4-methoxybenzyl)cyclopropene] | – | ~1 | – | – | – | – | – | – | – | – | – | – | – | –
